Experimental data: patent US20240335462A1, “SULFUR/PHOSPHORUS-CONTAINING ARYL COMPOUND AND APPLICATION THEREOF” (MEDSHINE DISCOVERY INC., priority 2021, published 2024)

Assays:
[1] = tested on: acute colitis induced by CD40 antibody; assay: Mouse model of acute colitis induced by CD40 antibody; format: in vivo, CB-17 SCID mice; design: DAI score: scale not given here; conditions: mean
Method: The purpose of this experiment was to evaluate the alleviating effect of the compound on colitis in a mouse model induced by CD40 antibody.
CB-17 SCID mice were randomly divided into groups. Each group consisted of 6 mice, which received an intraperitoneal injection (IP) of CD40 antibody (80 μg per mouse) on Day 0. The positive control drug IL-12 P40 antibody and the test compound were administered from Day-1 to Day 4, with Day 5 being the endpoint of the experiment. The positive control drug IL-12 P40 antibody was administered via intraperitoneal injection (IP) once every three days; the test compound was administered by gavage (PO) twice a day (BID).
The compounds were all prepared into a clear solution with 10% DMSO+10% solutol+80% (10% HP-3-CD) as a solvent for PO (oral gavage) administration. Administration volume parameters: 10 mL/kg based on the body weight of the mice.
IL-12 P40 antibody and the test compound were administered from Day-1 to Day 4. On Day 0, 30 minutes after administration, 200 μL of CD40 antibody (4 mg/kg) was intraperitoneally injected, while mice in the blank control group were intraperitoneally injected with 200 μL of DPBS. Body weight was recorded and feces were scored during the experiment.
Fecal scoring involved placing each mouse individually in a specially designed cage for about 10 minutes for scoring. The fecal scoring criteria were as per Table 27.
If blood is observed in the feces or around the anus, occult blood testing is not conducted. For the remaining mice without visible bloody stools, feces are collected for occult blood testing. Occult blood scoring is based on the assumption that the daily test results for the mice in the Normal group are 0. Each day, the fecal samples of four mice from the blank control group are observed for the time taken to develop color on the occult blood test strips. The shortest time required for color development in the feces of these four mice is set as the daily threshold. If the feces develop color before this time point and the color intensifies within 1 to 2 minutes, a score of 2 is assigned.
The body weight and Disease Activity Index (DAI) scores of the animals were recorded daily to assess the disease progression in each group and the effect of the test compound on the disease. The daily Disease Activity Index (DAI) score consists of three parts, with specific criteria referenced in Table 27.

[2] = tested on: IL-12/IL-18-induced IFN-γ secretion by mouse immune cells; assay: IL-12/IL-18-induced IFN-γ secretion in mice (serum ELISA); format: in vivo, C57BL/6J mice
Method: The purpose of this experiment was to evaluate the inhibitory effect of the compound on IL-12/IL-18-induced IFN-γ secretion by immune cells in mice. The IFN-γ protein level in serum samples of mice treated with the compound was detected using the enzyme-linked immunosorbent assay (ELISA) method.
This experiment was conducted twice.
The compounds were all prepared into a clear solution with 10% DMSO+10% solutol+80% (10% HP-β-CD) as a solvent for PO (oral gavage) administration. The frequency of administration was once daily (QD).
• a) According to the grouping, the mice were administered by gavage (P0) with either the compound formulation or solvent control. • b) One hour later, each mouse received an intraperitoneal injection of IL-12 (0.01 μg per mouse) or PBS buffer. • c) One hour after IL-12 administration, each mouse received an intraperitoneal injection of IL-18 (1 μg per mouse) or PBS buffer. • d) Blood was collected three hours after IL-18 administration, and serum was separated.
• a) Prior to use, all reagents were mixed thoroughly to avoid foaming. • b) The number of strips required was determined based on the number of experimental wells (blanks and standards). Duplicate tests were performed for samples (including standards) and blanks. • c) Sample addition: 100 μL/well of the diluted Cytokine standard was added to the standard wells, 100 μL/well of the sample was added to the sample wells, and 100 μL/well of Dilution buffer R (1×) was added to the blank control wells. • d) Detection antibody addition: 50 μL/well of Biotinylated antibody working solution was added. After mixing, the plate was covered with a sealing film and incubated at 37° C. for 90 minutes. • e) Plate washing: The liquid was discarded from the wells, then 300 μL/well of 1× Washing buffer working solution was added, and allowed to stand for 1 minute before the liquid was discarded from the wells. […]
The plate was covered with a sealing film and incubated at 37° C. for 30 minutes. • g) Plate washing: Step 5 was repeated. • h) Color development: 100 μL/well of TMB was added, then the plate was incubated at 37° C. in the dark for 5 to 30 minutes, and the reaction was terminated depending on the intensity of the color (dark blue) in the well. […] Dual wavelengths were recommended for reading the plate, specifically measuring at a measurement wavelength of 450 nm and a reference wavelength of 610 to 630 nm simultaneously.
The expression level of each sample was calculated based on the standard curve, and statistical analysis of the results for each group was performed, including mean and standard error of the mean (SEM). […] All data were analyzed using GraphPad Prism 6.02.

[3] = single PO administration 3 mg/kg
[4] = single PO administration 10 mg/kg

| SMILES | DAI score ([1]; 50 mg/kg PO BID, Day 0) | Weight change rate (%) ([1]; 50 mg/kg PO BID, Day 0) | DAI score ([1]; 50 mg/kg PO BID, Day 1) | Weight change rate (%) ([1]; 50 mg/kg PO BID, Day 1) | DAI score ([1]; 50 mg/kg PO BID, Day 2) | Weight change rate (%) ([1]; 50 mg/kg PO BID, Day 2) | DAI score ([1]; 50 mg/kg PO BID, Day 3) | Weight change rate (%) ([1]; 50 mg/kg PO BID, Day 3) | DAI score ([1]; 50 mg/kg PO BID, Day 4) | Weight change rate (%) ([1]; 50 mg/kg PO BID, Day 4) | DAI score ([1]; 50 mg/kg PO BID, Day 5) | Weight change rate (%) ([1]; 50 mg/kg PO BID, Day 5) | DAI score ([1]; 50 mg/kg PO BID, Day -1) | Weight change rate (%) ([1]; 50 mg/kg PO BID, Day -1) | Serum IFN-γ inhibition rate (%) [2, 3] [%] | Serum IFN-γ inhibition rate (%) [2, 4] [%] | also measured |
| --- | --- | --- | --- | --- | --- | --- | --- | --- | --- | --- | --- | --- | --- | --- | --- | --- | --- |
| CNC(=O)c1cnc(NC(=O)C2CC2)cc1Nc1cccc(-c2ccc(S(=O)(=O)C(C)C)cn2)c1OC.O=S(=O)(O)O [Sulfate of WX-020] | 0.33 | 100.48 | 1.17 | 98.37 | 2.67 | 95.22 | 0.83 | 100.73 | 0.33 | 100.81 | 0.50 | 100.44 | 0.00 | 100.00 |  |  | DAI score ([1]; 100 mg/kg PO BID, Day 0): 0.33; Weight change rate (%) ([1]; 100 mg/kg PO BID, Day 0): 100.78%; DAI score ([1]; 100 mg/kg PO BID, Day 1): 1.33; Weight change rate (%) ([1]; 100 mg/kg PO BID, Day 1): 99.88%; DAI score ([1]; 100 mg/kg PO BID, Day 2): 1.67; Weight change rate (%) ([1]; 100 mg/kg PO BID, Day 2): 97.14%; DAI score ([1]; 100 mg/kg PO BID, Day 3): 0.50; Weight change rate (%) ([1]; 100 mg/kg PO BID, Day 3): 99.65%; DAI score ([1]; 100 mg/kg PO BID, Day 4): 0.33; Weight change rate (%) ([1]; 100 mg/kg PO BID, Day 4): 101.16%; DAI score ([1]; 100 mg/kg PO BID, Day 5): 0.33; Weight change rate (%) ([1]; 100 mg/kg PO BID, Day 5): 100.90%; DAI score ([1]; 100 mg/kg PO BID, Day -1): 0.00; Weight change rate (%) ([1]; 100 mg/kg PO BID, Day -1): 100.00% |
| CNC(=O)c1cnc(NC(=O)C2CC2)cc1Nc1cccc(-c2ccc(S(=O)(=O)C(C)C)cn2)c1OC [WX-020] |  |  |  |  |  |  |  |  |  |  |  |  |  |  | 40 | 86 |  |
| CNC(=O)c1nnc(NC(=O)C2CC2)cc1Nc1cccc(-c2ncc(S(=N)(=O)C(C)C)cn2)c1OC.Cl (single isomer, unassigned) [Hydrochloride of WX-011A] | 0.33 | 100.63 | 1.00 | 99.54 | 1.83 | 97.69 | 0.67 | 100.43 | 0.50 | 100.96 | 1.17 | 99.34 | 0.00 | 100.00 |  |  | DAI score ([1]; 30 mg/kg PO BID, Day 0): 0.17; Weight change rate (%) ([1]; 30 mg/kg PO BID, Day 0): 100.60%; DAI score ([1]; 30 mg/kg PO BID, Day 1): 1.00; Weight change rate (%) ([1]; 30 mg/kg PO BID, Day 1): 100.01%; DAI score ([1]; 30 mg/kg PO BID, Day 2): 2.17; Weight change rate (%) ([1]; 30 mg/kg PO BID, Day 2): 95.93%; DAI score ([1]; 30 mg/kg PO BID, Day 3): 0.83; Weight change rate (%) ([1]; 30 mg/kg PO BID, Day 3): 98.85%; DAI score ([1]; 30 mg/kg PO BID, Day 4): 0.50; Weight change rate (%) ([1]; 30 mg/kg PO BID, Day 4): 99.69%; DAI score ([1]; 30 mg/kg PO BID, Day 5): 1.00; Weight change rate (%) ([1]; 30 mg/kg PO BID, Day 5): 97.07%; DAI score ([1]; 30 mg/kg PO BID, Day -1): 0.00; Weight change rate (%) ([1]; 30 mg/kg PO BID, Day -1): 100.00% |
| CNC(=O)c1nnc(NC(=O)C2CC2)cc1Nc1cccc(-c2ncc(S(=N)(=O)C(C)C)cn2)c1OC (single isomer, unassigned) [WX-011A] |  |  |  |  |  |  |  |  |  |  |  |  |  |  | 64 | 96 |  |
